Measurements reported in patent publication US9930892B2, “Molecules having pesticidal utility, and intermediates, compositions, and processes, related thereto” (Dow AgroSciences LLC, priority 2016, dated 2018).

Legend:
Format in all cases: in vivo
[1] = tested on: Beet Armyworm (Spodoptera exigua); experiment: Bioassay on Beet Armyworm (BAW), 128-well diet tray assay; conditions: 50 μg/cm^2 on artificial diet, second instar larvae, five to seven days, 25° C.
Protocol: Bioassays on BAW were conducted using a 128-well diet tray assay. One to five second instar BAW larvae were placed in each well (3 mL) of the diet tray that had been previously filled with 1 mL of artificial diet to which 50 μg/cm^2 of the test molecule (dissolved in 50 μL of 90:10 acetone-water mixture) had been applied (to each of eight wells) and then allowed to dry. Trays were covered with a clear self-adhesive cover and held at 25° C., 14:10 light-dark for five to seven days. Percent mortality was recorded for the larvae in each well; activity in the eight wells was then averaged. The results are indicated in the table entitled “Table ABC: Biological Results” (See Table Section).
(§1) Bioassays on BAW and CL were conducted according to the procedures outlined in Example A: Bioassays on Beet Armyworm (“BAW”) and Cabbage Looper (“CL”) using the indicated concentrations.

[2] = tested on: Cabbage Looper (Trichoplusia ni); experiment: Bioassay on Cabbage Looper (CL), 128-well diet tray assay; conditions: 50 μg/cm^2 on artificial diet, second instar larvae, five to seven days, 25° C.
Protocol: Bioassays on CL were conducted using a 128-well diet tray assay. One to five second instar CL larvae were placed in each well (3 mL) of the diet tray that had been previously filled with 1 mL of artificial diet to which 50 μg/cm^2 of the test molecule (dissolved in 50 μL of 90:10 acetone-water mixture) had been applied (to each of eight wells) and then allowed to dry. Trays were covered with a clear self-adhesive cover and held at 25° C., 14:10 light-dark for five to seven days. Percent mortality was recorded for the larvae in each well; activity in the eight wells was then averaged. The results are indicated in the table entitled “Table ABC: Biological Results” (See Table Section).
as §1

[3] = tested on: Yellow Fever Mosquito (Aedes aegypti); conditions: 4000 ppm master plate solution diluted, about 1 day-old larvae, scored on mortality after 3 days
Protocol: Master plates containing 400 μg of a molecule dissolved in 100 μL of dimethyl sulfoxide (DMSO) (equivalent to a 4000 ppm solution) are used. A master plate of assembled molecules contains 15 μL per well. To this plate, 135 μL of a 90:10 water:acetone mixture is added to each well. A robot (Biomek® NXP Laboratory Automation Workstation) is programmed to dispense 15 μL aspirations from the master plate into an empty 96-well shallow plate (“daughter” plate). There are 6 reps (“daughter” plates) created per master. The created daughter plates are then immediately infested with YFM larvae.
The day before plates are to be treated, mosquito eggs are placed in Millipore water containing liver powder to begin hatching (4 g. into 400 mL). After the daughter plates are created using the robot, they are infested with 220 μL of the liver powder/larval mosquito mixture (about 1 day-old larvae). After plates are infested with mosquito larvae, a non-evaporative lid is used to cover the plate to reduce drying. Plates are held at room temperature for 3 days prior to grading. After 3 days, each well is observed and scored based on mortality. The results are indicated in the table entitled “Table ABC: Biological Results” (See Table Section).

[4] = tested on: Green Peach Aphid (Myzus persicae); experiment: Bioassay on Green Peach Aphid (GPA), foliar spray on cabbage seedlings; conditions: 200 ppm spray on cabbage seedlings, graded after three days, Abbott corrected % control
Protocol: Cabbage seedlings grown in 3-inch pots, with 2-3 small (3-5 cm) true leaves, were used as test substrate. The seedlings were infested with 20-50 GPA (wingless adult and nymph stages) one day prior to chemical application. Four pots with individual seedlings were used for each treatment. Test molecules (2 mg) were dissolved in 2 mL of acetone/methanol (1:1) solvent, forming stock solutions of 1000 ppm test molecule. The stock solutions were diluted 5× with 0.025% Tween 20 in water to obtain the solution at 200 ppm test molecule. A hand-held aspirator-type sprayer was used for spraying a solution to both sides of […] leaves until runoff. Reference plants (solvent check) were sprayed with the diluent only containing 20% by volume of acetone/methanol (1:1) solvent. Treated plants were held in a holding room for three days at approximately 25° C. and ambient relative humidity (RH) prior to grading. Evaluation was conducted by counting the number of live aphids per plant under a microscope. Percent Control was measured by using Abbott's correction formula (W. S. Abbott, “A Method of Computing the Effectiveness of an Insecticide” J. Econ. Entomol. 18 (1925), pp. 265-267) as follows. Corrected % Control=100*(X−Y)/X • where • X=No. of live aphids on solvent check plants and • Y=No. of live aphids on treated plants

| SMILES | BAW % Control (or Mortality) rating [1] | CL % Control (or Mortality) rating [2] | YFM % Control (or Mortality) rating [3] | GPA % Control (or Mortality) rating [4] |
| --- | --- | --- | --- | --- |
| O=C(CCC(F)(F)F)NNC(=O)c1ccc(/C(F)=C/C(c2cc(Cl)cc(Cl)c2)C(F)(F)F)cc1C(F)(F)F (stereo not shown) [F6, (Z)-4-(3-(3,5-Dichlorophenyl)-1,4,4,4-tetrafluorobut-1-en-1-yl)-N′-(4,4,4-trifluorobutanoyl)-2-(trifluoromethyl)benzohydrazide] | A (50-100) | A (50-100) | A (80-100) |  |
| O=C(CCC(F)(F)F)NNC(=O)c1ccc(/C(F)=C/C(c2cc(Br)c(Cl)c(Br)c2)C(F)(F)F)cc1C(F)(F)F (stereo not shown) [F5, (Z)-4-(3-(3,5-dibromo-4-chlorophenyl)-1,4,4,4-tetrafluorobut-1-en-1-yl)-N′-(4,4,4-trifluorobutanoyl)-2-(trifluoromethyl)benzohydrazide] | A (50-100) | A (50-100) | A (80-100) |  |
| O=C(CCC(F)(F)F)NNC(=O)c1ccc(/C(F)=C/C(c2cc(Cl)c(F)c(Cl)c2)C(F)(F)F)cc1C(F)(F)F (stereo not shown) [F10, (Z)-4-(3-(3,5-Dichloro-4-fluorophenyl)-1,4,4,4-tetrafluorobut-1-en-1-yl)-N′-(4,4,4-trifluorobutanoyl)-2-(trifluoromethyl)benzohydrazide] | A (50-100) | A (50-100) | A (80-100) |  |
| CN(NC(=O)c1ccc(/C(F)=C/C(c2cc(Cl)c(F)c(Cl)c2)C(F)(F)F)cc1C(F)(F)F)C(=O)NCC(F)(F)F (stereo not shown) [F22, (Z)-2-(4-(3-(3,5-Dichloro-4-fluorophenyl)-1,4,4,4-tetrafluorobut-1-en-1-yl)-2-(trifluoromethyl)benzoyl)-1-methyl-N-(2,2,2-trifluoroethyl)hydrazinecarboxamide] | A (50-100) | A (50-100) | A (80-100) |  |
| CN(NC(=O)c1ccc(/C(F)=C/C(c2cc(Cl)cc(Br)c2)C(F)(F)F)cc1C(F)(F)F)C(=O)NCC(F)(F)F (stereo not shown) [F25, (Z)-2-(4-(3-(3-Bromo-5-chlorophenyl)-1,4,4,4-tetrafluorobut-1-en-1-yl)-2-(trifluoromethyl)benzoyl)-1-methyl-N-(2,2,2-trifluoroethyl)hydrazinecarboxamide] | A (50-100) | A (50-100) | A (80-100) |  |
| O=C(CCC(F)(F)F)NNC(=O)c1ccc(/C(F)=C/C(c2cc(Cl)c(Br)c(Cl)c2)C(F)(F)F)cc1C(F)(F)F (stereo not shown) [F27, (Z)-4-(3-(4-Bromo-3,5-dichlorophenyl)-1,4,4,4-tetrafluorobut-1-en-1-yl)-N′-(4,4,4-trifluorobutanoyl)-2-(trifluoromethyl)benzohydrazide] | A (50-100) | A (50-100) | A (80-100) |  |
| CN(NC(=O)c1ccc(/C(F)=C/C(c2ccc(Br)c(Br)c2)C(F)(F)F)cc1C(F)(F)F)C(=O)NCC(F)(F)F (stereo not shown) [F26, (Z)-2-(4-(3-(3,4-Dibromophenyl)-1,4,4,4-tetrafluorobut-1-en-1-yl)-2-(trifluoromethyl)benzoyl)-1-methyl-N-(2,2,2-trifluoroethyl)hydrazinecarboxamide] | B (More than 0-Less than 50) | B (More than 0-Less than 50) | A (80-100) |  |
| Cc1cc(C(/C=C(\F)c2ccc(C(=O)NN(C)C(=O)NCC(F)(F)F)c(C(F)(F)F)c2)C(F)(F)F)cc(C)c1Cl (stereo not shown) [F16, (Z)-2-(4-(3-(4-Chloro-3,5-dimethylphenyl)-1,4,4,4-tetrafluorobut-1-en-1-yl)-2-(trifluoromethyl)benzoyl)-1-methyl-N-(2,2,2-trifluoroethyl)hydrazinecarboxamide] | A (50-100) | A (50-100) | A (80-100) |  |
| CN(NC(=O)c1ccc(/C(F)=C/C(c2cc(Cl)cc(Cl)c2)C(F)(F)F)cc1C(F)(F)F)C(=O)NCC(F)(F)F (stereo not shown) [F8, (Z)-2-(4-(3-(3,5-Dichlorophenyl)-1,4,4,4-tetrafluorobut-1-en-1-yl)-2-(trifluoromethyl)benzoyl)-1-methyl-N-(2,2,2-trifluoroethyl) hydrazinecarboxamide] | A (50-100) | A (50-100) | A (80-100) |  |
| Cc1cc(C(/C=C(\F)c2ccc(C(=O)NN(C)C(=O)NCC(F)(F)F)c(C(F)(F)F)c2)C(F)(F)F)cc(Cl)c1Cl (stereo not shown) [F30, (Z)-2-(4-(3-(3,4-Dichloro-5-methylphenyl)-1,4,4,4-tetrafluorobut-1-en-1-yl)-2-(trifluoromethyl)benzoyl)-1-methyl-N-(2,2,2-trifluoroethyl)hydrazine-1-carboxamide] | A (50-100) | A (50-100) | D (No activity noticed in this bioassay) |  |
| CN(NC(=O)c1ccc(/C(F)=C/C(c2ccc(Cl)c(Cl)c2)C(F)(F)F)cc1C(F)(F)F)C(=O)NCC(F)(F)F (stereo not shown) [F15] | A (50-100) | A (50-100) | A (80-100) |  |
| O=C(CCC(F)(F)F)NNC(=O)c1ccc(/C(F)=C/C(c2ccc(Cl)c(Cl)c2)C(F)(F)F)cc1C(F)(F)F (stereo not shown) [F7, (Z)-4-(3-(3,4-Dichlorophenyl)-1,4,4,4-tetrafluorobut-1-en-1-yl)-N′-(4,4,4-trifluorobutanoyl)-2-(trifluoromethyl)benzohydrazide] | A (50-100) | A (50-100) | A (80-100) |  |
| CN(NC(=O)c1ccc(/C(F)=C/C(c2ccc(Cl)c(Br)c2)C(F)(F)F)cc1C(F)(F)F)C(=O)NCC(F)(F)F (stereo not shown) [PF8] | A (50-100) | A (50-100) | A (80-100) | B (More than 0-Less than 80) |
| CN(NC(=O)c1ccc(/C(F)=C/C(c2cc(Br)cc(Br)c2)C(F)(F)F)cc1C(F)(F)F)C(=O)NCC(F)(F)F (stereo not shown) [F14, (Z)-2-(4-(3-(3,5-dibromophenyl)-1,4,4,4-tetrafluorobut-1-en-1-yl)-2-(trifluoromethyl)benzoyl)-1-methyl-N-(2,2,2-trifluoroethyl)hydrazinecarboxamide] | A (50-100) | A (50-100) | A (80-100) |  |
| O=C(CCC(F)(F)F)NNC(=O)c1ccc(/C(F)=C/C(c2cc(Br)cc(Br)c2)C(F)(F)F)cc1C(F)(F)F (stereo not shown) [F9, (Z)-4-(3-(3,5-Dibromophenyl)-1,4,4,4-tetrafluorobut-1-en-1-yl)-N′-(4,4,4-trifluorobutanoyl)-2-(trifluoromethyl)benzohydrazide] | A (50-100) | A (50-100) | A (80-100) |  |
